Data on 3 compounds can be found in patent EP0017970A1, “Novel beta-lactam derivatives and process for production thereof” (SANRAKU-OCEAN CO., LTD., priority 1979, dated 1980).

Structures are written as SMILES. ≈ marks a conversion by molar mass, not a printed value. Structures can show the parent of a compound that is named as a salt. Bounds are passed on as bounds.

One series concerns Alcaligenes faecalis A 1. Kind of series: MIC, agar dilution assay. It is filed as cell-based. To be noted: 35°C for 20 hours. Here is the method: (§1) The antibiotic activities shown in Tables 1-1 to 1-9 above were determined in the following manner. The minimum inhibitory concentrations of the compounds of formula (VI-b) in Tables I-1 to 1-8 and the known compounds in Table 1-9 on the various microorganisms shown in the above tables were measured by an agar dilution assay method using a brain heart infusion agar medium "Difco" (a product of Difco Laboratories Inc.). A sample of the test compound was dissolved in sterile distilled water and diluted to prepare a twofold dilution series of the compound solution. In a betri dish of 9 cm in diameter, 1 ml of the compound solution was added to 9 ml of a molten sterile heart infusion agar medium (Difco Laboratories Inc.) at. about 60°C to prepare an agar plate containing the compound. An overnight culture of each test organism indicated in the above table, which was prepared by stationary cultivation in trypto-soy broth (Eiken Chemi. Co., Ltd.) at 35°C for 18 to 20 hours, was diluted with the trypto-soy broth to give approximately 10^8 cells/ml and the diluted inoculum was inoculated in the agar plate. After cultivating the plate at 35°C for 20 hours, the growth of the organism was observed. The minimum concentration of the compound at which no growth of the microorganism was noted was determined, and defined as the minimum inhibitory concentration of the test compound.
Background: In agar dilution, organisms are placed on agar that contains the substance at set levels.

In series [1] the test system is Bacillus subtilis ATCC 6633. Description: MIC, agar dilution assay. The series is classed as cell-based. To be noted: 35°C for 20 hours. Here is the method:
as §1

Series [2] deals with Comamonas terrigena B-996. Kind of series: MIC, agar dilution assay. To be noted: 35°C for 20 hours; for MIC: Comamonas terrigena, B996, 20 h, read-out: Antibiotic Activity minimum inhibitory concentration. The series is classed as cell-based. As to the method:
as §1

Series [3] relates to Enterobacter aerogenes E19. Description: MIC, agar dilution assay. To be noted: 35°C for 20 hours. It is filed as cell-based. Here is the method: as §1
A further series deals with Enterobacter sp. E8. Description: MIC, agar dilution assay. It is filed as cell-based. The settings on record: 35°C for 20 hours. Here is the method:
as §1

The next series has as its system Escherichia coli K-12. Kind of series: MIC, agar dilution assay. The series is classed as cell-based. To be noted: 35°C for 20 hours. As to the method: as §1
Series [4] deals with Klebsiella pneumoniae K-13. Kind of series: MIC, agar dilution assay. To be noted: K13, 35°C for 20 hours, read-out: Antibiotic Activity minimum inhibitory concentration. It is filed as cell-based. As to the method: as §1
In a further series the test system is Proteus rettgeri P7. Kind of series: MIC, agar dilution assay. It is filed as cell-based. The settings on record: 35°C for 20 hours. As to the method:
as §1

A further series deals with Proteus sp. P22. Description: MIC, agar dilution assay. It is filed as cell-based. To be noted: 35°C for 20 hours, read-out: Antibiotic Activity minimum inhibitory concentration. As to the method: as §1
Another series deals with Proteus vulgaris GN76. Kind of series: MIC, agar dilution assay. It is filed as cell-based. To be noted: 35°C for 20 hours, read-out: Antibiotic Activity minimum inhibitory concentration. As to the method:
as §1

The test system of another series is Providencia sp. P8. Kind of series: MIC, agar dilution assay. It is filed as cell-based. The settings on record: 35°C for 20 hours. Here is the method:
as §1

In series [5] the test system is Pseudomonas aeruginosa IFO3445. Kind of series: MIC, agar dilution assay. The settings on record: 35°C for 20 hours, read-out: Antibiotic Activity minimum inhibitory concentration. The series is classed as cell-based. Here is the method: as §1
Series [6] has as its system Pseudomonas aeruginosa NCTC10490. Kind of series: MIC, agar dilution assay. To be noted: 35°C for 20 hours, read-out: Antibiotic Activity minimum inhibitory concentration. It is filed as cell-based. As to the method: as §1
Another series deals with Sarcina lutea. Kind of series: MIC, agar dilution assay. The settings on record: 35°C for 20 hours. It is filed as cell-based. Here is the method: as §1
In a further series the test system is Serratia marcescens S18. Description: MIC, agar dilution assay. The series is classed as cell-based. The settings on record: 35°C for 20 hours; for MIC: Serratia marcescens, S18, 20 h, read-out: Antibiotic Activity minimum inhibitory concentration. Here is the method:
as §1

The subject of another series is Serratia marcescens T55. Description: MIC, agar dilution assay. It is filed as cell-based. The settings on record: 35°C for 20 hours. Here is the method:
as §1

The test system of series [7] is Staphylococcus aureus FDA 209P. Description: MIC, agar dilution assay. The series is classed as cell-based. The settings on record: 35°C for 20 hours. Here is the method: as §1
Series [8] deals with Staphylococcus aureus Russell. Kind of series: MIC, agar dilution assay. To be noted: 35°C for 20 hours. It is filed as cell-based. Here is the method:
as §1

Series [9] relates to Staphylococcus aureus Smith. Kind of series: MIC, agar dilution assay. The series is classed as cell-based. To be noted: 35°C for 20 hours. Here is the method: as §1
Series [10] relates to Staphylococcus epidermidis. Description: MIC, agar dilution assay. The series is classed as cell-based. To be noted: 35°C for 20 hours. Here is the method:
as §1

Series [11] can be described thus: Solubility (physical and chemical properties). The series is classed as physicochemical. As to the method:
The resulting powder was dissolved in 1 ml of a phosphate buffer (M/100, pH 8.4), and charged onto a column (1.1 x 90 cm) of Sephadex G-10 (a product of Pharmacia Fine Chemicals, Co.), and developed with the same buffer. The active fractions were collected by measuring their ultraviolet absorptions (λ300 nm). These fractions were adsorbed to a column (1.1 x 20 cm) of QAE Sephadex A-25 equilibrated with phosphate buffer (M/100, pH 8.4), and the column was eluted with 200 ml of phosphate buffer (M/100, pH 8.4) having a sodium chloride concentration linearly varying from 0 to O.lM by a concentration gradient method. The ultraviolet absorption (X300 nm) of each of the fractions was measured, and the active fractions were collected. Sodium chloride was added to the active fractions so that the concentration of sodium chloride reached 3% (w/v). The mixture was adsorbed to a column (1.1 x 20 cm) of Diaion HP-20AG (200 - 400 mesh), and eluted with water. The eluates were lyophilized to afford 5 mg of the sodium salt of PS-3 as a white dry powder. The physical and chemical properties of the product were as follows: • 1) Color Colorless • 2) Solubility

Series [12] can be described thus: Reaction with hydroxylamine, loss of UV absorbance. The series is classed as physicochemical. To be noted: about 20 µg/ml, hydroxylamine 10 mM, pH 7.5, 22°C for 30 minutes. As to the method:
An aqueous solution of hydroxylamine having a pH of 7.5 is added to a solution of the above substance in deionized water so that the concentration of the antibiotic PS-3 to about 20 µg/ml and the concentration of hydroxylamine to 10 mM. When the mixed solution is allowed to stand at 22°C for 30 minutes, about 93% of its absorbance at 300.0 nm disappears.

The test system of series [13] is Citrobacter freundii GN 346. Kind of series: MIC, agar dilution assay. The series is classed as cell-based. To be noted: GN346, 20 h, 35°C for 20 hours, read-out: Antibiotic Activity minimum inhibitory concentration. Here is the method: as §1
Another series deals with Enterobacter cloacae 45. Description: MIC, agar dilution assay. It is filed as cell-based. To be noted: Enterobacter cloacae, 45, 20 h, 35°C for 20 hours, read-out: Antibiotic Activity minimum inhibitory concentration. As to the method:
as §1

A further series has as its system Escherichia coli RGN 823. Description: MIC, agar dilution assay. To be noted: RGN823, 20 h, 35°C for 20 hours, read-out: Antibiotic Activity minimum inhibitory concentration. It is filed as cell-based. As to the method: as §1
A further series concerns Proteus mirabilis P6. Kind of series: MIC, agar dilution assay. It is filed as cell-based. The settings on record: P6, 20 h, 35°C for 20 hours, read-out: Antibiotic Activity minimum inhibitory concentration. As to the method:
as §1

Setting [14] is: Staphylococcus aureus, 20 h, read-out: Antibiotic Activity minimum inhibitory concentration.

`CC(O)[C@H]1C(=O)N2C(C(=O)O)=C(Sc3ccncc3)C[C@H]12` (relative stereo) [Table I-1 R1=-OH*]: the “Antibiotic Activity minimum inhibitory concentration” value in the series with Alcaligenes faecalis A 1 is below 0.007 µg/mL; in [1] it was below 0.007 µg/mL; in [2], below 0.007 µg/mL; in series [3], 1.56 µg/mL; with Enterobacter sp. E8, 0.025 µg/mL; in the series on Escherichia coli K-12, 0.05 µg/mL. Further, the “Antibiotic Activity minimum inhibitory concentration” value with Proteus rettgeri P7 is 0.78 µg/mL; in the series with Providencia sp. P8 it was 0.20 µg/mL; with Sarcina lutea, below 0.007 µg/mL; with Serratia marcescens S18 it was 50 µg/mL; in the series with Serratia marcescens T55, 25 µg/mL; in series [7], below 0.007 µg/mL. Further, the “Antibiotic Activity minimum inhibitory concentration” value in [8], in series [9] and in series [10] was below 0.007 µg/mL each time. Also, the MIC came to 0.013 µg/mL (≈ 0.0424 µM) in series [2]; 25 µg/mL (≈ 81.6 µM) in series [4]; 50 µg/mL (≈ 163 µM) in the series on Proteus sp. P22; 50 µg/mL (≈ 163 µM) in the series on Proteus vulgaris GN76; 1.56 µg/mL (≈ 5.09 µM) in series [5]; 1.56 µg/mL (≈ 5.09 µM) in series [6]. For the same compound, the MIC with Serratia marcescens S18 came to 100 µg/mL (≈ 326 µM).
In the case of `CC(=O)NCCSC1=C(C(=O)O)N2C(=O)C(C(C)O)C2C1` (stereo not shown) [PS-3 sodium salt, 3-(2-acetamidoethylthio)-6-(1-hydroxyethyl)-7-oxo-1-azabicyclo[3.2.0]hept-2-ene-2-carboxylic acid], the Solubility entry in [11] (in acetone) is “substantially insoluble”; in [11] (in water) it was “Readily soluble”. Moreover, the “absorbance at 300.0 nm that disappears” value in series [12] is “about 93%”.
Consider `CC(C)C1C(=O)N2C(C(=O)O)=C(Sc3ccncc3)CC12` (stereo not shown) [Table I-1 R1=-CH3], for which the MIC came to 0.013 µg/mL (≈ 0.0427 µM) in the series with Alcaligenes faecalis A 1 (Alcaligenes faecalis, A1, 20 h, read-out: Antibiotic Activity minimum inhibitory concentration); 0.013 µg/mL (≈ 0.0427 µM) in [1] (Bacillus subtilis, ATCC6633, 20 h, read-out: Antibiotic Activity minimum inhibitory concentration); 50 µg/mL (≈ 164 µM) in series [13]; 0.007 µg/mL (≈ 0.023 µM) in series [2]; 12.5 µg/mL (≈ 41.1 µM) in series [3] (Klebsiella aerogenes, E19, 20 h, read-out: Antibiotic Activity minimum inhibitory concentration); 50 µg/mL (≈ 164 µM) with Enterobacter cloacae 45. Also, the MIC with Enterobacter sp. E8 (Enterobacter, SP.E8, 20 h, read-out: Antibiotic Activity minimum inhibitory concentration) was 1.56 µg/mL (≈ 5.13 µM); in the series with Escherichia coli K-12 (Escherichia coli, K12, 20 h, read-out: Antibiotic Activity minimum inhibitory concentration) it was 3.13 µg/mL (≈ 10.3 µM); in the series with Escherichia coli RGN 823, 12.5 µg/mL (≈ 41.1 µM); in series [4], 25 µg/mL (≈ 82.1 µM); with Proteus mirabilis P6, 3.13 µg/mL (≈ 10.3 µM); with Proteus rettgeri P7 (Providencia rettgeri, P7, 20 h, read-out: Antibiotic Activity minimum inhibitory concentration), 1.56 µg/mL (≈ 5.13 µM). The MIC with Proteus sp. P22 is 50 µg/mL (≈ 164 µM); in the series with Proteus vulgaris GN76 it was 50 µg/mL (≈ 164 µM); in the series with Providencia sp. P8 (Providencia, SP.P8, 20 h, read-out: Antibiotic Activity minimum inhibitory concentration) it was 3.13 µg/mL (≈ 10.3 µM); in series [5], 1.56 µg/mL (≈ 5.13 µM); in [6], 1.56 µg/mL (≈ 5.13 µM); in the series with Sarcina lutea (Micrococcus luteus, 20 h, read-out: Antibiotic Activity minimum inhibitory concentration) it was 0.013 µg/mL (≈ 0.0427 µM). For the same compound, the MIC with Serratia marcescens S18 is 50 µg/mL (≈ 164 µM); in the series with Serratia marcescens T55 (Serratia marcescens, T55, 20 h, read-out: Antibiotic Activity minimum inhibitory concentration) it was 100 µg/mL (≈ 329 µM); in series [7] (Staphylococcus aureus, FDA209P, 20 h, read-out: Antibiotic Activity minimum inhibitory concentration), 0.007 µg/mL (≈ 0.023 µM); in [8] (setting [14]), 0.013 µg/mL (≈ 0.0427 µM); in [9] (setting [14]), 0.013 µg/mL (≈ 0.0427 µM); in series [10] (20 h, read-out: Antibiotic Activity minimum inhibitory concentration) it was 0.013 µg/mL (≈ 0.0427 µM).
